According to US4565865A, “Phospholipid carbamates” (Takeda Chemical Industries, Ltd., priority 1980, dated 1986):
In brackets after ≈: the same amount, converted by molar mass. Read-outs that look alike come from different tables or passages of the source.

Columns and labels:
Format in all cases: cell-based
Leptosphaeria salvinii = experiment: Antifungal activity, MIC by serial dilution in agar; details: Nakataea oryzae
Cryptococcus neoformans = experiment: Antifungal activity, paper disc zone of inhibition; details: 37° C., 2 days, agar, 8 mm paper disc, 2 mg/ml solution; for zone of inhibition at 2000 µg/mL: Cryptococcus neoformans, 48 h
Procedure: For the antifungal activity data given in Table 1, Cryptococcus neoformans is used as the test microorganism and incubated at 37° C. for 2 days in an agar medium with a paper disc (8 mm in diameter) immersed in an aqueous 2 mg/ml solution of a test compound and air-dried as placed on said medium, and the zone of inhibition is measured. The judgement criteria are as follows: "-" means less than 9 mm in inhibition zone diameter, "±" means 9-11 mm, "+" means 12-20 mm, and "++" means more than 20 mm.

Pyricularia oryzae = experiment: microbe, parasite or virus in culture
Brewer's yeast = experiment: Antifungal activity, MIC by serial dilution in agar
Tetrahymena pyriformis W = experiment: Antiprotozoal activity, MIC by serial broth dilution technique; details: 28° C., 44-48 hours, tryptose peptone medium, pH 7.0; for MIC: Tetrahymena pyriformis
Gibberella fujikuroi = experiment: Antifungal activity, MIC by serial dilution in agar; details: Fusarium fujikuroi, 1% glucose bouillon agar
Procedure: (§1) For the antifungal activity data shown in Table 2, various typical plant-disease-causing fungi are used as the test fungi and the minimum inhibitory concentration (MIC) are determined by the serial dilution technique using a 1% glucose bouillon agar medium.

Botrytis cinerea = experiment: as above; details: 1% glucose bouillon agar
Procedure: as §1

Penicillium = experiment: as above; details: 1% glucose bouillon agar
Procedure: as §1

Aspergillus = experiment: as above; details: 1% glucose bouillon agar
Procedure: as §1

Red yeast = experiment: as above; details: 1% glucose bouillon agar
Procedure: as §1

Cochliobolus miyabeanus = experiment: as above; details: Bipolaris oryzae
[1] = tested on: human promyelocytic leukemia cells HL-60; experiment: Growth inhibition (GD50) of human promyelocytic leukemia HL-60 cells
[2] = tested on: Rauscher virus-induced promyelocytic leukemia cells R 453; experiment: Growth inhibition (GD50) of Rauscher virus-induced leukemia R 453 cells; details: Mus musculus
[3] = tested on: mouse spontaneous myelolid leukemia M1 cells (resistant clone); experiment: Growth inhibition (GD50) of mouse leukemia M1 cells
[4] = four successive population doublings of untreated cells, trypan blue, mean of four separate experiments

Molecule | zone of inhibition at 2000 µg/mL (Cryptococcus neoformans) | MIC (Pyricularia oryzae) | MIC (Tetrahymena pyriformis W) | MIC (Gibberella fujikuroi) | MIC (Botrytis cinerea) | MIC (Penicillium) | MIC (Aspergillus) | MIC (Red yeast) | MIC (Cochliobolus miyabeanus) | MIC (Leptosphaeria salvinii) | MIC (Brewer's yeast) | IC50 [1, 4] | also measured
CCCCCCCCCCCCCCNC(=O)OCC(COP(=O)([O-])OCC[N+](C)(C)C)OC (stereo not drawn) [Example 26, 3-(N-Tetradecylcarbamoyloxy)-2-methoxypropyl 2-trimethylammonioethyl phosphate] | 12 to 20 mm | 3.12 µg/mL | 0.2 µg/mL | 12.5 µg/mL | 3.12 µg/mL | 12.5 µg/mL | 12.5 µg/mL | 25 µg/mL | 12.5 µg/mL | – | – | – | MIC (Leptosphaeria salvinii; Leptosphaeria salvinii, 1% glucose bouillon agar, read-out: MIC): 6.25 µg/mL; MIC (Brewer's yeast; Brewer's yeast, 1% glucose bouillon agar, read-out: MIC): 6.25 µg/mL; IC50 [1]: 2 to 3 µg/mL
CCCCCCCCCCCCCCCCCNC(=O)OCCCOP(=O)([O-])OCC[N+](C)(C)C [Example 4, 3-(N-n-Heptadecylcarbamoyloxy)propyl 2-trimethylammonioethyl phosphate] | 12 to 20 mm | 6.25 µg/mL | 1 to 2 µg/mL | > 100 µg/mL | 12.5 µg/mL | > 100 µg/mL | > 100 µg/mL | > 100 µg/mL | > 100 µg/mL | 50 µg/mL | > 100 µg/mL | – | IC50 [2]: 2 to 3 µg/mL; IC50 [3]: 3 to 4 µg/mL; IC50 [1]: 1 µg/mL
CCCCCCCCCCCCCNC(=O)OCCCOP(=O)([O-])OCC[N+](C)(C)C [Example 23, 3-(N-Tridecylcarbamoyloxy)propyl 2-trimethylammonioethyl phosphate] | 12 to 20 mm | 6.25 µg/mL | ≤ 0.1 µg/mL | 25 µg/mL | 6.25 µg/mL | 12.5 µg/mL | 12.5 µg/mL | 12.5 µg/mL | 12.5 µg/mL | 12.5 µg/mL | 12.5 µg/mL | – | –
CCCCCCCCCCNC(=O)OCC(COP(=O)([O-])OCC[N+](C)(C)C)OC (stereo not drawn) [Example 29, 3-(N-Decylcarbamoyloxy)-2-methoxypropyl 2-trimethylammonioethyl phosphate] | 9 to 11 mm | – | 2 µg/mL | – | – | – | – | – | – | – | – | – | –
CCCCCCCCCCCCCCCCCCNC(=O)OCC(COP(=O)([O-])OCC[N+](C)(C)C)OC (stereo not drawn) [Example 11, 3-(N-n-Octadecylcarbamoyloxy)-2-methoxypropyl 2-trimethylammonioethyl phosphate] | 12 to 20 mm | – | 2 to 4 µg/mL | – | – | – | – | – | – | – | – | 0.6 µg/mL | –
CCCCCCCCCCCCCCNC(=O)OCCCOP(=O)([O-])OCC[N+](C)(C)C [Example 36, 3-N-Tetradecylcarbamoyloxypropyl 2-trimethylammonioethyl phosphate] | > 20 mm | 3.12 µg/mL | ≤ 1 µg/mL | 12.5 µg/mL | 12.5 µg/mL | 12.5 µg/mL | 12.5 µg/mL | 25 µg/mL | 25 µg/mL | 6.25 µg/mL | 6.25 µg/mL | – | –
CCCCC/C=C\C/C=C\CCCCCCCNC(=O)OCCCOP(=O)([O-])OCC[N+](C)(C)C [Example 20] | 12 to 20 mm | – | 2 µg/mL (≈ 3.86 µM) | – | – | – | – | – | – | – | – | 4.8 µg/mL (≈ 9.25 µM) | –
CCCCCCCCCCCCCCCCCCNC(=O)OCCOP(=O)([O-])OCC[N+](C)(C)C [Example 15, 2-(N-Octadecylcarbamoyloxy)ethyl 2-trimethylammonioethyl phosphate] | 12 to 20 mm | – | 1 to 2 µg/mL | – | – | – | – | – | – | – | – | 2.3 µg/mL | –
3-[8,11,14(Z,Z,Z)-Heptadecatrienylcarbamoyloxy]propyl 2-aminoethyl phosphate [Example 18] | – | – | – | – | – | – | – | – | – | – | – | – | Cryptococcus neoformans Zone of inhibition (Cryptococcus neoformans): + (12-20 mm); Tetrahymena pyriformis W MIC (Tetrahymena pyriformis W): 2 to 4 µg/mL
CCCCCCCCCCCCCCCCCCNC(=O)OCC(COP(=O)([O-])OCC[n+]1ccsc1)OC (stereo not drawn) [Example 13, 3-(N-n-Octadecylcarbamoyloxy)-2-methoxypropyl 2-thiazolioethyl phosphate] | 12 to 20 mm | – | 2 to 4 µg/mL | – | – | – | – | – | – | – | – | – | –
CCCCCCCCCCCCCCCCCCNC(=O)OCC(COP(=O)([O-])OCC[n+]1ccccc1)OC (stereo not drawn) [Example 12, 3-(N-n-Octadecylcarbamoyloxy)-2-methoxypropyl 2-pyridinioethyl phosphate] | 12 to 20 mm | – | 4 µg/mL | – | – | – | – | – | – | – | – | 1 µg/mL | –
CCC=CCC=CCC=CCCCCCCCNC(=O)OCCCOP(=O)([O-])OCC[N+](C)(C)C [Example 17, 3-(N-8,11,14-Heptadecatrienylcarbamoyloxy)propyl 2-trimethylammonioethyl phosphate] | > 20 mm | 25 µg/mL | ≤ 1 µg/mL | 50 µg/mL | 12.5 µg/mL | 50 µg/mL | 50 µg/mL | 100 µg/mL | 25 µg/mL | 50 µg/mL | 100 µg/mL | 2 µg/mL | –
CCCCCCCCCCCCNC(=O)OCCCOP(=O)(O)OCCN [Example 32] | 12 to 20 mm | – | ≤ 1 µg/mL | – | – | – | – | – | – | – | – | – | –
CCCCC/C=C\C/C=C\CCCCCCCNC(=O)OCCOP(=O)([O-])OCC[N+](C)(C)C [Example 21, 2-[8,11(Z,Z)-Heptadecadienylcarbamoyloxy]ethyl 2-trimethylammonioethyl phosphate] | 9 to 11 mm | – | 2 µg/mL | – | – | – | – | – | – | – | – | – | –
CCCCCCCCCCCCCCNC(=O)OCC(COP(=O)(O)OCCN)OC (stereo not drawn) [Example 25, 3-(N-Tetradecylcarbamoyloxy)-2-methoxypropyl 2-aminoethyl phosphate] | > 20 mm | 6.25 µg/mL | ≤ 1 µg/mL | 50 µg/mL | 6.25 µg/mL | 25 µg/mL | 25 µg/mL | 50 µg/mL | > 100 µg/mL | 100 µg/mL | 25 µg/mL | – | IC50 [1]: 2 to 3 µg/mL
CCCCCCCCCCCCNC(=O)OCCCOP(=O)([O-])OCC[N+](C)(C)C [Example 31, 3-N-Dodecylcarbamoyloxypropyl 2-trimethylammonioethyl phosphate] | 12 to 20 mm | 12.5 µg/mL | ≤ 1 µg/mL | 50 µg/mL | 12.5 µg/mL | 12.5 µg/mL | 12.5 µg/mL | 25 µg/mL | 12.5 µg/mL | 25 µg/mL | 12.5 µg/mL | – | –
CCCCC/C=C\C/C=C\CCCCCCCNC(=O)OCCCOP(=O)(O)OCCN [Example 22, 3-[8,11(Z,Z)-Heptadecadienylcarbamoyloxy]propyl 2-aminoethyl phosphate] | 9 to 11 mm | – | ≤ 1 µg/mL | – | – | – | – | – | – | – | – | 4.3 µg/mL | –
CCCCCCCCCCNC(=O)OCC(COP(=O)(O)OCCN)OC (stereo not drawn) [Example 28, 3-(N-Decylcarbamoyloxy)-2-methoxypropyl 2-aminoethyl phosphate] | < 9 mm | – | 2 µg/mL | – | – | – | – | – | – | – | – | – | –
COC1=C(OC)C(=O)C(CCCCCCCCCNC(=O)OCCCOP(=O)([O-])OCC[N+](C)(C)C)=C(C)C1=O [Example 8, 3-[N-(9-(2,3-Dimethoxy-6-methyl-1,4-benzoquinon-5-yl)nonyl)carbamoyloxy]propyl 2-trimethylammonioethyl phosphate] | – | – | 40 µg/mL | – | – | – | – | – | – | – | – | – | –
